Assay results: PMC3091225 (The Journal of Biological Chemistry, 2011)

Legend:
Assay in all cases: direct fluorescence titration of TBG into fluorophore
Assay type in all cases: binding
[1] = target: T1, TBG (wild-type, native, intact reactive loop) (Homo sapiens, UniProt P05543)
T1 sequence (P05543 21-415): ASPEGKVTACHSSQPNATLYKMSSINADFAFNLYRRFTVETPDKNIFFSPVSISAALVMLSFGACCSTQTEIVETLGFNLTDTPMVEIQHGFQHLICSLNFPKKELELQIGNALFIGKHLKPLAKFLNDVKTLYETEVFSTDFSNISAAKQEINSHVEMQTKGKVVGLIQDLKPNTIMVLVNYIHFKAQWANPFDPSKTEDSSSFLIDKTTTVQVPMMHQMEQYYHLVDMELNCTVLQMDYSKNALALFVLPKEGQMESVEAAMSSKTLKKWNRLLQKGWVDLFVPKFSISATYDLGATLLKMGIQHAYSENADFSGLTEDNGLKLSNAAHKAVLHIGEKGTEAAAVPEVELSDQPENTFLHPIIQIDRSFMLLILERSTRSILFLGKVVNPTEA

[2] = target: T2, cleaved TBG (wild-type, reactive loop cleaved) (Homo sapiens, UniProt P05543, DEL124-126/K123A)
T2 sequence (P05543 with tags, fused parts or gaps K123A/DEL124-126): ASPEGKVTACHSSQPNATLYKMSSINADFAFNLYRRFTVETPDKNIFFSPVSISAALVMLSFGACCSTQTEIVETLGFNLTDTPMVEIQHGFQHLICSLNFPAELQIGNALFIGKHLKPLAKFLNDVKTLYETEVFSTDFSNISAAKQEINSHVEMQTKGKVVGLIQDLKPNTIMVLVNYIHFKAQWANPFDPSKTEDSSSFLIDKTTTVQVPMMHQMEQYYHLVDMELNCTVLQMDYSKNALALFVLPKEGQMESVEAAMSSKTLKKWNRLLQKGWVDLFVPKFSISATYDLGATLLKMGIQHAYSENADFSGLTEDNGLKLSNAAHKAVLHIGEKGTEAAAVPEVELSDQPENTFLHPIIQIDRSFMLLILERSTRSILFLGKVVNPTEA

[3] = target: T3, TBG (wild-type, native, intact reactive loop) (Homo sapiens, UniProt P05543, DEL124-126/K123A)
T3 sequence (P05543 with tags, fused parts or gaps K123A/DEL124-126): T2 sequence (P05543 with tags, fused parts or gaps K123A/DEL124-126)

| Kd [1] [nM] | Kd [2] [nM] | Kd [3] [nM] | Structure (SMILES) |
| --- | --- | --- | --- |
| < 0.1 |  |  | O=C(N[C@@H](Cc1cc(I)c(Oc2cc(I)c(O)c(I)c2)c(I)c1)C(=O)O)c1ccc2c(c1)C(=O)OC21c2ccc(O)cc2Oc2cc(O)ccc21 [T4–5-CF] |
|  | 50.7 ± 3.6 | 24.9 ± 1.8 | O=C(N[C@@H](Cc1cc(I)c(Oc2cc(I)c(O)c(I)c2)c(I)c1)C(=O)O)c1ccc2c(c1)C1(OC2=O)c2ccc(O)cc2Oc2cc(O)ccc21 [T4–6-CF] |
